Data: US20150284331A1 (priority 2012, published 2015)

Key:
acetylcholinesterase = target: T1, acetylcholinesterase (Rattus norvegicus, UniProt P37136); test: biochemical; assay type: biochemical; settings: rat cortex enzyme; for acetylcholinesterase inhibitory activity inhibition ratio (%): final concentration 4×10−5 mol/L; for IC50: read-out: acetylcholinesterase inhibitory activity IC50 (nmol)
T1 construct: Acetylcholinesterase: rat cortex; from tissue; host or cells: rat cortex
T1 sequence (P37136 32-614): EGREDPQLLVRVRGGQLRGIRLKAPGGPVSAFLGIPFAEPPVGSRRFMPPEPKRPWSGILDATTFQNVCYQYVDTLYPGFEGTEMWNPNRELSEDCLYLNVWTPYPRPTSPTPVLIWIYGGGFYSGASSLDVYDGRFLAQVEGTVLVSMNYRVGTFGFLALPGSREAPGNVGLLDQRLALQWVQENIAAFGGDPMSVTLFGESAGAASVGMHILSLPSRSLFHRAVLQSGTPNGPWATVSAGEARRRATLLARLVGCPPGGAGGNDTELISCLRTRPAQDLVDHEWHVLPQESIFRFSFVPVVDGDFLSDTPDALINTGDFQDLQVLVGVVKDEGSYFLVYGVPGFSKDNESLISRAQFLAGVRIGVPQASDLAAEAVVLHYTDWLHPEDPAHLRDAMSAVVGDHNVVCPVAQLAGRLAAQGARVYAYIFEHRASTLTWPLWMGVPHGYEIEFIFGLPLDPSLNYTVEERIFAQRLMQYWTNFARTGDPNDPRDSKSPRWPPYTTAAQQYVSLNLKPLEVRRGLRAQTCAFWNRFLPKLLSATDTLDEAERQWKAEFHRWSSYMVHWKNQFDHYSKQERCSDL
Protocol: (§1) Sample processing: All samples were formulated as 10-2 mol/L solution by using 100% DMSO. 10-2 mol/L solution was used in microdetermination. 1 μL was taken to use in single tube experiment.
(§2) Solvent control: 0.4% DMSO was used in microdetermination. The inhibition ratio of the sample was obtained wherein the effect of solvent was deducted.
Acetylcholinesterase: rat cortex

butyrylcholinesterase = target: T2, butyrylcholinesterase (Rattus norvegicus, UniProt Q9JKC1); test: inhibition of butyrylcholinesterase (rat serum); assay type: biochemical; settings: rat serum enzyme; final concentration 4×10−5 mol/L
T2 construct: Butyrylcholinesterase: rat serum; from tissue; host or cells: rat serum
Protocol: as §1, §2
Butyrylcholinesterase: rat serum

KM mice = test: acute toxicities of compounds on mice; assay type: in vivo; settings: 100 mg/kg oral
Protocol: Sample processing: When getting samples, they were undissolved. […] The samples were suspensions. Experimental animals: KM mice, 22-29 g, half male and half female.
Experimental method: Mice were randomly divided into groups. 100 mg/kg of test compounds DC19 and DC20 were administered orally, respectively.

T2 sequence (Q9JKC1 24-597): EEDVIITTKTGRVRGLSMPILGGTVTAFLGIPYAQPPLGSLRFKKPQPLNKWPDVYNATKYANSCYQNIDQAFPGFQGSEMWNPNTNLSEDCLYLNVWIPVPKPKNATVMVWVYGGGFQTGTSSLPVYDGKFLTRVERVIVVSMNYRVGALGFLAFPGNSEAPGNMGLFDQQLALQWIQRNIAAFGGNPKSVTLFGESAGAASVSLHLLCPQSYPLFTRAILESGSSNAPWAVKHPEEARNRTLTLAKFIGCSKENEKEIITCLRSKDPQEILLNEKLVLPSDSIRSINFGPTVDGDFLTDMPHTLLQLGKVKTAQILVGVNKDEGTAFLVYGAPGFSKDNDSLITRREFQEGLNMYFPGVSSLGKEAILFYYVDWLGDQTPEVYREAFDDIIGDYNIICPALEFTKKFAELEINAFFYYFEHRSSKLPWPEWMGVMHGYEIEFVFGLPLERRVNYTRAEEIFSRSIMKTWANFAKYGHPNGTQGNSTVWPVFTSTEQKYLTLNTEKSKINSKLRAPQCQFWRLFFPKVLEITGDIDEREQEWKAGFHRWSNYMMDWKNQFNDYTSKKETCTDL

Row | Compound | acetylcholinesterase inhibitory activity inhibition ratio (%) (acetylcholinesterase) | butyrylcholinesterase inhibitory activity inhibition ratio (%) (butyrylcholinesterase) | IC50 (acetylcholinesterase) | response symptoms (KM mice; female KM mouse) | time of death after administration (KM mice; male KM mouse)
1 | COc1cc2c(cc1OC)C(=O)C(CC1(F)CCN(Cc3cccc(F)c3)CC1)C2.Cl (centres unmarked) [DC38, 2-((4-fluoro-1-(3-fluorobenzyl)piperidin-4-yl)methyl)-5,6-dimethoxy-2,3-dihydro-1H-inden-1-one hydrochloride] | 96.90% | 72.57% |  |  | 
2 | COc1cc2c(cc1OC)C(=O)C(CC1(F)CCN(Cc3cc(F)c(F)cc3F)CC1)C2 (centres unmarked) [DC17, 2-((4-fluoro-1-(2,4,5-trifluorobenzyl)piperidin-4-yl)methyl)-5,6-dimethoxy-2,3-dihydro-1H-inden-1-one] | 81.84% | 49.79% | 2 nM |  | 
3 | COc1cc2c(cc1OC)C(=O)C(CC1(F)CCN(Cc3ccccc3Br)CC1)C2 (centres unmarked) [DC14, 2-((1-(2-bromobenzyl)-4-fluoropiperidin-4-yl)methyl)-5,6-dimethoxy-2,3-dihydro-1H-inden-1-one] | 85.03% | 54.77% | 4 nM |  | 
4 | COc1cc2c(cc1OC)C(=O)C(CC1(F)CCN(Cc3ccccc3C(F)(F)F)CC1)C2 (centres unmarked) [DC18, 2-((4-fluoro-1-(2-(trifluoromethyl)benzyl)piperidin-4-yl)methyl)-5,6-dimethoxy-2,3-dihydro-1H-inden-1-one] | 93.80% | 14.99% |  |  | 
5 | COc1cc2c(cc1OC)C(=O)C(CC1(F)CC3CCC(C1)N3Cc1ccccc1F)C2 (centres unmarked) [DC60, 2-((3-fluoro-8-(2-fluorobenzyl)-8-azabicyclo[3.2.1]octan-3-yl)methyl)-5,6-dimethoxy-2,3-dihydro-1H-inden-1-one] | 95.13% | 64.31% |  |  | 
6 | COc1cc2c(cc1OC)C(=O)C(CC1(F)CCN(Cc3ccc(-c4ccccc4)cc3)CC1)C2 (centres unmarked) [DC36, 2-((1-([1,1′-biphenyl]-4-ylmethyl)-4-fluoropiperidin-4-yl)methyl)-5,6-dimethoxy-2,3-dihydro-1H-inden-1-one] | 90.25% | 5.18% |  |  | 
7 | COc1cc2c(cc1OC)C(=O)C(CC1(F)CCN(Cc3cccc(Br)c3)CC1)C2 (centres unmarked) [DC11, 2-((1-(3-bromobenzyl)-4-fluoropiperidin-4-yl)methyl)-5,6-dimethoxy-2,3-dihydro-1H-inden-1-one] | 84.63% | 12.76% | 4.33 nM |  | 
8 | COc1cc2c(cc1OC)C(=O)C(CC1(F)CCN(Cc3ccccc3F)C(C)C1)C2 (centres unmarked) [DC109, 2-((4-fluoro-1-(2-fluorobenzyl)-2-methylpiperidin-4-yl)methyl)-5,6-dimethoxy-2,3-dihydro-1H-inden-1-one] | 88.44% | 76.62% | 10.9 nM |  | 
9 | COc1cc2c(cc1OC)C(=O)C(CC1(F)CCN(Cc3cccc(C(F)(F)F)c3)CC1)C2 (centres unmarked) [DC30, 2-((4-fluoro-1-(3-(trifluoromethyl)benzyl)piperidin-4-yl)methyl)-5,6-dimethoxy-2,3-dihydro-1H-inden-1-one] | 97.49% | 5.18% |  |  | 
10 | COc1cc2c(cc1OC)C(=O)C(CC1(F)CCN(CCc3ccccc3)CC1)C2 (centres unmarked) [DC110, 2-((4-fluoro-1-phenethylpiperidin-4-yl)methyl)-5,6-dimethoxy-2,3-dihydro-1H-inden-1-one] | 88.55% | 66.30% | 12.3 nM |  | 
11 | CCOc1cc2c(cc1OCC)C(=O)C(CC1(F)CCN(Cc3ccccc3F)CC1)C2 (centres unmarked) [DC77, 5,6-diethoxy-2-((4-fluoro-1-(2-fluorobenzyl)piperidin-4-yl)methyl)-2,3-dihydro-1H-inden-1-one] | 97.09% | 72.0% | 0.9 nM |  | 
12 | COc1cc2c(cc1OC)C(=O)C(CC1(F)CCN(Cc3ccc(Br)cc3F)CC1)C2 (centres unmarked) [DC15, 2-((1-(4-bromo-2-fluorobenzyl)-4-fluoropiperidin-4-yl)methyl)-5,6-dimethoxy-2,3-dihydro-1H-inden-1-one] | 72.65% | 0.31% | 7040 nM |  | 
13 | COc1cc2c(cc1OC)C(=O)C(CC1(F)CC3CCC(C1)N3Cc1cccc(F)c1)C2 (centres unmarked) [DC61, 2-((3-fluoro-8-(3-fluorobenzyl)-8-azabicyclo[3.2.1]octan-3-yl)methyl)-5,6-dimethoxy-2,3-dihydro-1H-inden-1-one] | 96.75% | 61.04% |  |  | 
14 | CCCOc1cc2c(cc1OCCC)C(=O)C(CC1(F)CCN(Cc3ccccc3F)CC1)C2 (centres unmarked) [DC78, 2-((4-fluoro-1-(2-fluorobenzyl)piperidin-4-yl)methyl)-5,6-dipropoxy-2,3-dihydro-1H-inden-1-one] | 95.04% | 71.0% | 0.96 nM |  | 
15 | COc1cc2c(cc1OC)C(=O)C(CC1(F)CCN(Cc3ccc(F)cc3F)CC1)C2 (centres unmarked) [DC10, 2-((1-(2,4-difluorobenzyl)-4-fluoropiperidin-4-yl)methyl)-5,6-dimethoxy-2,3-dihydro-1H-inden-1-one] | 97.34% | 83.11% |  |  | 
16 | COc1cc2c(cc1OC)C(=O)C(CC1(F)CCN(Cc3ccccc3)CC1)C2 (stereo not drawn) [DC19, 2-((l-benzyl-4-fluoropiperidin-4-yl)methyl)-5,6-dimethoxy-2,3-dihydro-1H-inden-1-one] | 82.44% | 71.58% | 0.96 nM | 30 min squint | 3 h after administration, death
17 | COc1cc2c(cc1OC)C(=O)C(CC1(F)CC3CCC(C1)N3Cc1cccc(Br)c1)C2 (centres unmarked) [DC51, 2-((8-(3-bromobenzyl)-3-fluoro-8-azabicyclo[3.2.1]octan-3-yl)methyl)-5,6-dimethoxy-2,3-dihydro-1H-inden-1-one] | 85.08% | 15.26% |  |  | 
18 | COc1cc2c(cc1OC)C(=O)C(CC1(F)CCN(Cc3c(F)cccc3[N+](=O)[O-])CC1)C2 (centres unmarked) [DC8, 2-((4-fluoro-1-(2-fluoro-6-nitrobenzyl)piperidin-4-yl)methyl)-5,6-dimethoxy-2,3-dihydro-1H-inden-1-one] | 76.05% | 49.48% | 27100 nM |  | 
19 | COc1cc2c(cc1OC)C(=O)C(CC1(F)CC3CCC(C1)N3Cc1cc(C)cc(C)c1)C2 (centres unmarked) [DC44, 2-((8-(3,5-dimethylbenzyl)-3-fluoro-8-azabicyclo[3.2.1]octan-3-yl)methyl)-5,6-dimethoxy-2,3-dihydro-1H-inden-1-one] | 95.27% | 34.15% |  |  | 
20 | COc1cc2c(cc1OC)C(=O)C(CC1(F)CCN(Cc3ccc(F)cc3)CC1)C2 (centres unmarked) [DC5, 2-((4-fluoro-1-(4-fluorobenzyl)piperidin-4-yl)methyl)-5,6-dimethoxy-2,3-dihydro-1H-inden-1-one] | 82.04% | 0.00% | 2.67 nM |  | 
21 | COc1cc2c(cc1OC)C(=O)C(CC1(F)CCN(Cc3ccccc3F)C(C(=O)O)C1)C2 (centres unmarked) [DC108, 4-((5,6-dimethoxy-1-oxo-2,3-dihydro-1H-inden-2-yl)methyl)-4-fluoro-1-(2-fluorobenzyl)piperidine-2-carboxylic acid] | 82.49% | 71.58% | 9.96 nM |  | 
